# Data: patent US20150105252A1, “SUBSTITUTED PYRAZOLES AS HERBICIDES” (E I DU PONT DE NEMOURS AND COMPANY, priority 2013, published 2015)
# How the values were obtained:
# canarygrass = assay: Test D preemergence; format: in vivo, Phalaris minor; conditions: for Plant response rating, Canarygrass: Preemergence, scale 0 to 100
# Text: (§1) Seeds of plant species selected from bluegrass (annual bluegrass, Poa annua), blackgrass (Alopecurus myosuroides), canarygrass (littleseed canarygrass, Phalaris minor), chickweed (common chickweed, Stellaria media), galium (catchweed bedstraw, Galium aparine), bromegrass, downy (downy bromegrass, Bromus tectorum), field poppy (Papaver rhoeas), field violet (Viola arvensis), foxtail, green (green foxtail, Setaria viridis), deadnettle (henbit deadnettle, Lamium amplexicaule), ryegrass, Italian (Italian ryegrass, Lolium multiflorum), kochia (Kochia scoparia), lambsquarters (Chenopodium album), oilseed rape (Brassica napus), pigweed (redroot pigweed, Amaranthus retroflexus), chamomile (scentless chamomile, Matricaria inodora), speedwell (bird's-eye speedwell, Veronica persica), barley, spring (spring barley, Hordeum vulgare), wheat, spring (spring wheat, Triticum aestivum), buckwheat, wild (wild buckwheat, Polygonum convolvulus), mustard, wild (wild mustard, Sinapis arvensis), oat, wild (wild oat, Avena fatua), radish, wild (wild radish, Raphanus raphanistrum), windgrass (Apera spica-venti), Russian thistle (Salsola kali), barley, winter (winter barley, Hordeum vulgare), and wheat, winter (winter wheat, Triticum aestivum) were planted into a silt loam soil and treated preemergence with test chemicals formulated in a non-phytotoxic solvent mixture which included a surfactant.
# (§2) At the same time, these species were planted in pots containing Redi-Earth® planting medium (Scotts Company, 14111 Scottslawn Road, Marysville, Ohio 43041) comprising spaghnum peat moss, vermiculite, wetting agent and starter nutrients and treated with postemergence applications of the test chemicals formulated in the same manner. Plants ranged in height from 2 to 18 cm (1- to 4-leaf stage). Treated plants and controls were maintained in a controlled growth environment for 14 to 21 days after which time all species were compared to controls and visually evaluated. Plant response ratings, summarized in Table D, are based on a scale of 0 to 100 where 0 is no effect and 100 is complete control. A dash (-) response means no test result.
# field poppy = assay: Test D preemergence; format: in vivo, Papaver rhoeas; conditions: for Plant response rating, Field Poppy: Preemergence, scale 0 to 100
# Text: as §1, §2
# field violet = assay: Test D preemergence; format: in vivo, Viola arvensis; conditions: for Plant response rating, Field Violet: Preemergence, scale 0 to 100
# Text: as §1, §2
# foxtail, green [1] = assay: Test D preemergence; format: in vivo, Setaria viridis; conditions: for Plant response rating, Foxtail, Green: Preemergence, scale 0 to 100
# Text: as §1, §2
# deadnettle = assay: Test D preemergence; format: in vivo, Lamium amplexicaule; conditions: for Plant response rating, Deadnettle: Preemergence, scale 0 to 100
# Text: as §1, §2
# barley, spring [2] = assay: Test D preemergence; format: in vivo, Hordeum vulgare; conditions: for Plant response rating, Barley, Spring: Preemergence, scale 0 to 100
# Text: as §1, §2
# barley, winter [3] = assay: Test D preemergence; format: in vivo, Hordeum vulgare; conditions: for Plant response rating, Barley, Winter: Preemergence, scale 0 to 100
# Text: as §1, §2
# wheat, spring = assay: Test D preemergence; format: in vivo, Triticum aestivum; conditions: for Plant response rating, Wheat, Spring: Preemergence, scale 0 to 100
# Text: as §1, §2
# wheat, winter = assay: Test D preemergence; format: in vivo, Triticum aestivum; conditions: for Plant response rating, Wheat, Winter: Preemergence, scale 0 to 100
# Text: as §1, §2
# buckwheat, wild [4] = assay: Test D preemergence; format: in vivo, Polygonum convolvulus; conditions: for Plant response rating, Buckwheat, Wild: Preemergence, scale 0 to 100
# Text: as §1, §2
# mustard, wild = assay: Test D preemergence; format: in vivo, Sinapis arvensis; conditions: Preemergence, scale 0 to 100
# Text: as §1, §2
# windgrass = assay: Test D preemergence; format: in vivo, Apera spica-venti; conditions: for Plant response rating, Windgrass: Preemergence, scale 0 to 100
# Text: as §1, §2
# blackgrass = assay: Test D postemergence; format: in vivo, Alopecurus myosuroides; conditions: scale 0 to 100
# Text: as §1, §2
# foxtail, green [5] = assay: Test D postemergence; format: in vivo, Setaria viridis; conditions: scale 0 to 100
# Text: as §1, §2
# kochia = assay: Test D postemergence; format: in vivo, Kochia scoparia; conditions: scale 0 to 100
# Text: as §1, §2
# pigweed = assay: Test D postemergence; format: in vivo, Amaranthus retroflexus; conditions: scale 0 to 100
# Text: as §1, §2
# barley, spring [6] = assay: Test D postemergence; format: in vivo, Hordeum vulgare; conditions: scale 0 to 100
# Text: as §1, §2
# barley, winter [7] = assay: Test D postemergence; format: in vivo, Hordeum vulgare; conditions: scale 0 to 100
# Text: as §1, §2
# buckwheat, wild [8] = assay: Test D postemergence; format: in vivo, Polygonum convolvulus; conditions: scale 0 to 100
# Text: as §1, §2
# [9] = 16 g ai/ha, taken as preemergence
structure (smiles),measurement,setting,value
CCc1cc(C(=O)NC2CC2)nn1Cc1ccnc(C(F)(F)F)c1 [Compound 76],"Plant response rating (scale 0 to 100), Canarygrass",canarygrass; [9],0
same,"Plant response rating, Canarygrass",canarygrass; 31 g ai/ha,5
same,"Plant response rating, Canarygrass",canarygrass; 62 g ai/ha,65
same,"Plant response rating, Canarygrass",canarygrass; 125 g ai/ha,100
same,"Plant response rating, Canarygrass",canarygrass; 250 g ai/ha,100
same,"Plant response rating (scale 0 to 100), Field Poppy",field poppy; [9],95
same,"Plant response rating, Field Poppy",field poppy; 31 g ai/ha,100
same,"Plant response rating, Field Poppy",field poppy; 62 g ai/ha,100
same,"Plant response rating, Field Poppy",field poppy; 125 g ai/ha,100
same,"Plant response rating, Field Poppy",field poppy; 250 g ai/ha,100
same,"Plant response rating (scale 0 to 100), Field Violet",field violet; [9],60
same,"Plant response rating, Field Violet",field violet; 31 g ai/ha,95
same,"Plant response rating, Field Violet",field violet; 62 g ai/ha,100
same,"Plant response rating, Field Violet",field violet; 125 g ai/ha,100
same,"Plant response rating, Field Violet",field violet; 250 g ai/ha,100
same,"Plant response rating (scale 0 to 100), Foxtail, Green","foxtail, green [1]; [9]",25
same,"Plant response rating, Foxtail, Green","foxtail, green [1]; 31 g ai/ha",50
same,"Plant response rating, Foxtail, Green","foxtail, green [1]; 62 g ai/ha",100
same,"Plant response rating, Foxtail, Green","foxtail, green [1]; 125 g ai/ha",100
same,"Plant response rating, Foxtail, Green","foxtail, green [1]; 250 g ai/ha",100
same,"Plant response rating (scale 0 to 100), Deadnettle",deadnettle; [9],0
same,"Plant response rating, Deadnettle",deadnettle; 31 g ai/ha,50
same,"Plant response rating, Deadnettle",deadnettle; 62 g ai/ha,100
same,"Plant response rating, Deadnettle",deadnettle; 125 g ai/ha,100
same,"Plant response rating, Deadnettle",deadnettle; 250 g ai/ha,100
same,"Plant response rating (scale 0 to 100), Barley, Spring","barley, spring [2]; 16 g ai/ha, taken as preemergence, 0 = no effect, 100 = complete control",0
same,"Plant response rating, Barley, Spring","barley, spring [2]; 31 g ai/ha",0
same,"Plant response rating, Barley, Spring","barley, spring [2]; 62 g ai/ha",10
same,"Plant response rating, Barley, Spring","barley, spring [2]; 125 g ai/ha",65
same,"Plant response rating, Barley, Spring","barley, spring [2]; 250 g ai/ha",75
same,"Plant response rating (scale 0 to 100), Barley, Winter","barley, winter [3]; [9]",0
same,"Plant response rating, Barley, Winter","barley, winter [3]; 31 g ai/ha",0
same,"Plant response rating, Barley, Winter","barley, winter [3]; 62 g ai/ha",15
same,"Plant response rating, Barley, Winter","barley, winter [3]; 125 g ai/ha",60
same,"Plant response rating, Barley, Winter","barley, winter [3]; 250 g ai/ha",75
same,"Plant response rating (scale 0 to 100), Wheat, Spring","wheat, spring; [9]",0
same,"Plant response rating, Wheat, Spring","wheat, spring; 31 g ai/ha",0
same,"Plant response rating, Wheat, Spring","wheat, spring; 62 g ai/ha",10
same,"Plant response rating, Wheat, Spring","wheat, spring; 125 g ai/ha",60
same,"Plant response rating, Wheat, Spring","wheat, spring; 250 g ai/ha",75
same,"Plant response rating (scale 0 to 100), Wheat, Winter","wheat, winter; [9]",0
same,"Plant response rating, Wheat, Winter","wheat, winter; 31 g ai/ha",0
same,"Plant response rating, Wheat, Winter","wheat, winter; 62 g ai/ha",5
same,"Plant response rating, Wheat, Winter","wheat, winter; 125 g ai/ha",40
same,"Plant response rating, Wheat, Winter","wheat, winter; 250 g ai/ha",60
same,"Plant response rating (scale 0 to 100), Buckwheat, Wild","buckwheat, wild [4]; [9]",0
same,"Plant response rating, Buckwheat, Wild","buckwheat, wild [4]; 31 g ai/ha",20
same,"Plant response rating, Buckwheat, Wild","buckwheat, wild [4]; 62 g ai/ha",70
same,"Plant response rating, Buckwheat, Wild","buckwheat, wild [4]; 125 g ai/ha",100
same,"Plant response rating, Buckwheat, Wild","buckwheat, wild [4]; 250 g ai/ha",100
same,"Plant response rating, Mustard, Wild","mustard, wild; 31 g ai/ha",60
same,"Plant response rating, Mustard, Wild","mustard, wild; 62 g ai/ha",100
same,"Plant response rating, Mustard, Wild","mustard, wild; 125 g ai/ha",100
same,"Plant response rating, Mustard, Wild","mustard, wild; 250 g ai/ha",100
same,"Plant response rating (scale 0 to 100), Windgrass",windgrass; [9],5
same,"Plant response rating, Windgrass",windgrass; 31 g ai/ha,15
same,"Plant response rating, Windgrass",windgrass; 62 g ai/ha,65
same,"Plant response rating, Windgrass",windgrass; 125 g ai/ha,80
same,"Plant response rating, Windgrass",windgrass; 250 g ai/ha,100
same,"Plant response rating, Blackgrass","blackgrass; Postemergence, 16 g ai/ha",5
same,Blackgrass plant response rating,"blackgrass; Postemergence, 31 g ai/ha",0
same,Blackgrass plant response rating,"blackgrass; Postemergence, 125 g ai/ha",10
same,Blackgrass plant response rating,"blackgrass; Postemergence, 250 g ai/ha",10
same,Blackgrass plant response rating,"blackgrass; postemergence, 62 g ai/ha",5
same,"Plant response rating, Foxtail, Green","foxtail, green [5]; Postemergence, 16 g ai/ha",5
same,"Foxtail, Green plant response rating","foxtail, green [5]; Postemergence, 31 g ai/ha",35
same,"Foxtail, Green plant response rating","foxtail, green [5]; Postemergence, 125 g ai/ha",55
same,"Foxtail, Green plant response rating","foxtail, green [5]; Postemergence, 250 g ai/ha",85
same,"Foxtail, Green plant response rating","foxtail, green [5]; postemergence, 62 g ai/ha",15
same,"Plant response rating, Kochia","kochia; Postemergence, 16 g ai/ha",25
same,Kochia plant response rating,"kochia; Postemergence, 31 g ai/ha",40
same,Kochia plant response rating,"kochia; Postemergence, 125 g ai/ha",60
same,Kochia plant response rating,"kochia; Postemergence, 250 g ai/ha",75
same,Kochia plant response rating,"kochia; postemergence, 62 g ai/ha",50
same,"Plant response rating, Pigweed","pigweed; Postemergence, 16 g ai/ha",50
same,Pigweed plant response rating,"pigweed; Postemergence, 31 g ai/ha",55
same,Pigweed plant response rating,"pigweed; Postemergence, 125 g ai/ha",80
same,Pigweed plant response rating,"pigweed; Postemergence, 250 g ai/ha",80
same,Pigweed plant response rating,"pigweed; postemergence, 62 g ai/ha",65
same,"Barley, Spring plant response rating","barley, spring [6]; Postemergence, 16 g ai/ha",0
same,"Barley, Spring plant response rating","barley, spring [6]; Postemergence, 31 g ai/ha",0
same,"Barley, Spring plant response rating","barley, spring [6]; Postemergence, 125 g ai/ha",10
same,"Barley, Spring plant response rating","barley, spring [6]; Postemergence, 250 g ai/ha",15
same,"Barley, Spring plant response rating","barley, spring [6]; postemergence, 62 g ai/ha",5
same,"Barley, Winter plant response rating","barley, winter [7]; Postemergence, 16 g ai/ha",10
same,"Barley, Winter plant response rating","barley, winter [7]; Postemergence, 31 g ai/ha",10
same,"Barley, Winter plant response rating","barley, winter [7]; Postemergence, 125 g ai/ha",15
same,"Barley, Winter plant response rating","barley, winter [7]; Postemergence, 250 g ai/ha",20
same,"Barley, Winter plant response rating","barley, winter [7]; postemergence, 62 g ai/ha",10
same,"Plant response rating, Buckwheat, Wild","buckwheat, wild [8]; Postemergence, 16 g ai/ha",50
same,"Buckwheat, Wild plant response rating","buckwheat, wild [8]; Postemergence, 31 g ai/ha",55
same,"Buckwheat, Wild plant response rating","buckwheat, wild [8]; Postemergence, 125 g ai/ha",60
same,"Buckwheat, Wild plant response rating","buckwheat, wild [8]; Postemergence, 250 g ai/ha",100
same,"Buckwheat, Wild plant response rating","buckwheat, wild [8]; postemergence, 62 g ai/ha",50
